Results on 15 compounds are retold here after US4684739A, “Alkylenedioxybenzene derivatives and acid addition salts thereof” (Mitsubishi Chemical Industries Limited, priority 1980, dated 1987).

Counter-ions that a name gives are not always drawn.

For data set [1], the system named is spontaneous hypertensive rats (SHR). Nature of the data set: Hypotensive effect in spontaneous hypertensive rats after oral administration. It is filed as in vivo. The settings on record: Rattus norvegicus, percent drop relative to blood pressure before medication; for inhibition in vivo at 3 mg/kg: 3 mg/kg p.o.; for inhibition in vivo at 10 mg/kg: 10 mg/kg p.o.; for inhibition in vivo at 1 mg/kg: 1 mg/kg p.o. How it is done: The hypotensive activities of the compounds of this invention were tested as follows: The test animals used were spontaneous hypertensive rats (SHR) of 5 to 7 month old weighing 300 to 370 g. The blood pressure and the heart rate were measured bloodily under no anesthesia by means of a cathether which has been inserted through the tail's artery under ether anesthesia, thereby determining the average blood pressure and heart rate before medication. […] The hypotensive effect was expressed as percent drop relative to the blood pressure before medication.

Data set [2] in a line: Acute toxicity (LD50) in mice, Litchfield-Wilcoxon method. The settings on record: mouse, in vivo. How it is done: The values for acute toxicity (LD50 ) were calculated by the Litchfield-Wilcoxon method from the data obtained on mice.

Turning to `Cl.c1ccc2c(c1)OCC(CNCCCOc1ccc3c(c1)OCO3)O2` (stereo not drawn) [Compound 5, 5-[3-{(1,4-benzodioxan-2-ylmethyl)amino}propoxy]-1,3-benzodioxole hydrochloride], in data set [1], the inhibition in vivo at 3 mg/kg came to 32.6% and 10 mg/kg produced 47.6% inhibition in vivo. The LD50 in data set [2] (ip) stood at 165 mg/kg.

As for `c1ccc2c(c1)OCC(CNCCCCOc1ccc3c(c1)OCO3)O2` (stereo not drawn) [Compound 6], in data set [1], at 3 mg/kg the inhibition in vivo was 28.5% and the inhibition in vivo at 10 mg/kg is 32%.

In data set [1], `OC(CNCC1COc2ccccc2O1)c1ccc2c(c1)OCCO2` (stereo not drawn) [Compound 21, 6-[2-{(1,4-benzodioxan-2-ylmethyl)amino}-1-hydroxyethyl]-1,4-benzodioxane] had an inhibition in vivo at 1 mg/kg of 9.8%, an inhibition in vivo at 3 mg/kg of 19.5% and an inhibition in vivo at 10 mg/kg of 39.1%.

In data set [1], `c1ccc2c(c1)OCC(CNCCCCc1ccc3c(c1)OCCO3)O2` (stereo not drawn) [Compound 16, 6-[4-{(1,4-benzodioxan-2-ylmethyl)amino}butyl]-1,4-benzodioxane] displayed an inhibition in vivo at 1 mg/kg of 12.1%, an inhibition in vivo at 3 mg/kg of 33.7% and an inhibition in vivo at 10 mg/kg of 50%. In data set [2] (iv), this compound returned an LD50 of 31 mg/kg.

On to `c1ccc2c(c1)OCC(CNCCCOc1ccc3c(c1)OCCO3)O2` (stereo not drawn) [Compound 7, 6-[3-{(1,4-benzodioxan-2-ylmethyl)amino}propoxy]-1,4-benzodioxane], for which, in data set [1], the inhibition in vivo at 3 mg/kg stood at 35.2% and the inhibition in vivo at 10 mg/kg stood at 55.3%.

In data set [1], `c1ccc2c(c1)OCC(CNCCCOc1ccc3c(c1)OCCCO3)O2` (stereo not drawn) [Compound 9, 1-[3-{(1,4-benzodioxan-2-ylmethyl)amino}propoxy]-3,4-trimethylenedioxybenzene] displayed an inhibition in vivo at 3 mg/kg of 30.1% and an inhibition in vivo at 10 mg/kg of 48.4%.

In data set [1], `c1ccc2c(c1)OCC(CNCCCCc1ccc3c(c1)OCCCO3)O2` (stereo not drawn) [Compound 17, 1-[4-{(1,4-benzodioxan-2-ylmethyl)amino}butyl]-3,4-trimethylenedioxybenzene hydrochloride] showed an inhibition in vivo at 1 mg/kg of 20.1% and an inhibition in vivo at 3 mg/kg of 29.7%.

Take `c1ccc2c(c1)OCC(CNCCCNc1ccc3c(c1)OCO3)O2` (stereo not drawn) [Compound 19, N-[3-{(1,4-benzodioxan-2-ylmethyl)amino}propyl]-3,4-methylenedioxyaniline]: in data set [1], testing at 1 mg/kg gave an inhibition in vivo of 19.6%, 3 mg/kg produced 27.8% inhibition in vivo and 10 mg/kg produced 44.3% inhibition in vivo.

Consider `Cl.O=C(CNCC1COc2ccccc2O1)c1ccc2c(c1)OCO2` (stereo not drawn) [Compound 12, 5-[2-{(1,4-benzodioxan-2-ylmethyl)amino}acetyl]-1,3-benzodioxole hydrochloride], for which, in data set [1], the inhibition in vivo at 1 mg/kg worked out at 20.1%, the inhibition in vivo at 3 mg/kg turned out to be 28.2% and at 10 mg/kg the inhibition in vivo was 42.3%. In data set [2] (po), this compound gave an LD50 of 1350 mg/kg.

In the case of `O=C(CCNCC1COc2ccccc2O1)c1ccc2c(c1)OCO2` (stereo not drawn) [Compound 27, reference compound], in data set [1], the inhibition in vivo at 1 mg/kg was determined as 7.8%, the inhibition in vivo at 3 mg/kg was determined as 12.8% and testing at 10 mg/kg gave an inhibition in vivo of 30.3%.

In data set [1], `OC(CNCC1COc2ccccc2O1)COc1ccc2c(c1)OCCO2` (stereo not drawn) [Compound 2, 6-[3-{(1,4-benzodioxan-2-ylmethyl)amino}-2-hydroxypropoxy]-1,4-benzodioxane] returned an inhibition in vivo at 1 mg/kg of 9%, an inhibition in vivo at 3 mg/kg of 20.2% and an inhibition in vivo at 10 mg/kg of 30.4%.

In data set [1], `c1ccc2c(c1)OCC(CNCCOc1cccc3c1OCO3)O2` (stereo not drawn) [Compound 26, reference compound] showed an inhibition in vivo at 3 mg/kg of 3.5% and an inhibition in vivo at 10 mg/kg of 8.1%.

In data set [1], `O=C(CCNCC1COc2ccccc2O1)Nc1ccc2c(c1)OCO2` (stereo not drawn) [Compound 18, N-[3-{(1,4-benzodioxan-2-ylmethyl)amino}propionyl]-3,4-methylenedioxyaniline] showed an inhibition in vivo at 1 mg/kg of 11.9%, an inhibition in vivo at 3 mg/kg of 27.5% and an inhibition in vivo at 10 mg/kg of 41%.

Regarding `c1ccc2c(c1)OCC(CNCCCCOc1cccc3c1OCO3)O2` (stereo not drawn) [Compound 10], in data set [1], the inhibition in vivo at 3 mg/kg came to 30.6% and the inhibition in vivo at 10 mg/kg turned out to be 40%.

In data set [1], `Cl.OC(CNCC1COc2ccccc2O1)COc1ccc2c(c1)OCO2` (stereo not drawn) [Compound 1, 5-[3-{(1,4-benzodioxan-2-ylmethyl)amino}-2-hydroxypropoxy]-1,3-benzodioxole hydrochloride] displayed an inhibition in vivo at 1 mg/kg of 9.9%, an inhibition in vivo at 3 mg/kg of 15.4% and an inhibition in vivo at 10 mg/kg of 27.6%. The compound further showed an LD50 in data set [2] (po) of 515 mg/kg.
